Entries after “also recorded” stand apart in the source; their conditions may differ.
Legend:
[1] = test system: DU-145; assay: MTT cell viability assay, DU-145; type: cell-based; settings: for GI90 / GI50: DU-145, MTT, 96 hours exposure
Protocol: (§1) All cell lines were obtained from American Type Culture Collection (Rockville, Md.) and maintained in RPMI 1640 media supplemented with 10% fetal bovine serum and 5% penicillin/streptomycin solution. Cells were grown as a monolayer in a humidified incubator (5% CO2) at 37° C. To determine the effect of the compounds on cell proliferation, cells were plated (2500 cells/well) in 96-well cell culture dishes (Corning, Inc. Corning, N.Y.). After a 24 hr attachment period, media was replaced with fresh media containing compounds (0.01 μM-100 μM) or vehicle (95% ethanol). The cells were then allowed to grow in the presence of the drugs for 96 hours. After 96 hours, relative cell viability was assessed using the MTT reagent (3-(4,5-dimethylthiazol-2-yl)-2,5-diphenyltetrazolium bromide) as described in Patel, et al. 2004^43. Experiments were carried out three times with six replicates per dose per experiment (n=18). Results were plotted using the average of each dose over all three experiments and fitted with a best-fit sigmoidal dose response variable slope curve using GraphPad Prism 4.01 (GraphPad Software, Inc.). […] Combination index (CI) was calculated as previously described^44. CI values less than 1 are considered synergistic.

[2] = test system: PC-3; assay: MTT cell viability assay, PC-3; type: cell-based; settings: for GI90 / GI50: MTT, 96 hours exposure
Protocol: Cells were grown as a monolayer in a humidified incubator (5% CO2) at 37° C. To determine the effect of the compounds on cell proliferation, cells were plated (2500 cells/well) in 96-well cell culture dishes (Corning, Inc. Corning, N.Y.). […] The cells were then allowed to grow in the presence of the drugs for 96 hours. […] Experiments were carried out three times with six replicates per dose per experiment (n=18). […] Combination index (CI) was calculated as previously described^44. CI values less than 1 are considered synergistic.

[3] = test system: LNCaP; assay: MTT cell viability assay, LNCaP; type: cell-based, human; settings: 96 hours exposure; for GI50: Homo sapiens
Protocol: as §1

[4] = given clinically as the prodrug abiraterone acetate; cited from earlier work
[5] = mice, s.c. 50 mg/kg, cited from earlier work
[6] = Oral bioavailability in rat; settings: in vivo
[7] = test system: PC-3 cells; assay: Ca2+ transients in PC-3 cells (Fluo-3AM); type: cell-based; settings: 20 μM; for transient rise in [Ca2+]i, mean ΔF/Fo: Fluo-3AM
Protocol: (§2) PC-3 Cells were loaded with either fura-2 or fluo-3 indicator by incubation with 2 μM fura-2/AM or 2 μM fluo-3/AM in RPMI 1640 medium containing 10% fetal bovine serum for >60 min at room temperature. During experiments, the coverslips were mounted in a flow chamber and superfused with oxygenated Locke solution containing (in mM): 10 glucose, 136 NaCl, 5.6 KCl, 1.2 NaH2PO4, 14.3 NaHCO3, 1.2 MgCl2, and 2.2 CaCl2, pH 7.4, at room temperature (22-24° C.).
(§3) Cells loaded with fura-2 were placed in a perfusion chamber mounted on an inverted microscope (TE200; Nikon, Tokyo, Japan) equipped with a UV-transmitting objective (SuperFluor, 40×, N.A. 1.4, Nikon). Fura-2 was alternately excited by 340 nm and 380 nm light from monochrometers (Deltascan Illumination System, Photonic Technology International (PTI), South Brunswick, N.J.) and fura-2 emission was passed through a 515 nm longpass filter before detection by a cooled CCD camera (Retiga 2000R, Q-Imaging, Burnaby, Canada). For measurement of Ca^2+ transients in individual cells, coverslips with fluo-3 loaded cells were excited by the output of a 100 W mercury arc lamp that passed through a 480 nm bandpass filter (30 nm bandwidth). Fluorescence emission was passed through a 515 nm longpass filter before capture by a cooled CCD camera (Retiga 2000R, Q-Imaging). Image acquisition was performed with QCapture Pro (Q-Imaging) and analysis was performed with ImageJ (U.S. National Institutes of Health, Bethesda, Md., USA).
Fluo-3 Ca^2+ indicator measurements are reported as the fractional change in fluorescence intensity relative to baseline (ΔF/F0), which was determined as follows. Within a temporal sequence of fluorescence images, a region of interest (ROI) was drawn around each cell to be analyzed. The fluorescence signal from each cell was calculated as the pixel-averaged intensity within each ROI. In these experiments, a slight downward drift in baseline was typically observed, which was principally attributable to photo-bleaching of the indicator. […]

[8] = test system: PC-3 cells; assay: Western blot of ERSR related proteins in PC-3 cells; type: cell-based
Protocol: Protein was isolated, subjected to SDS-PAGE, transferred and imaged as previously described^45. All primary antibodies were purchased from Cell Signaling (Danvers, Mass.). Quantitation of relative protein expression was determined via densitometry using the software ImageQuant 5.0 (Molecular Dynamics) with each protein normalized to its respective loading control. Results represent the average of at least three independent experiments, with representative blots shown.

[9] = test system: PC-3 cells; assay: Cell cycle analysis by flow cytometry in synchronized PC-3 cells; type: cell-based; settings: 20 μM
Protocol: Cells were synchronized in the G1/G0 phase by maintaining them in 0.2% FBS-containing media for 96 hours. After starvation, media was replaced with normal growth media (10% FBS) containing vehicle (95% ethanol) or 20 μM VN/124-1 for 12, 18, and 24 hours. At each timepoint, cells were fixed in 70% ethanol at −20° C. for at least 24 hours. Fixed cells were then incubated with 1 mL propidium iodide (PI) staining buffer (1 mg/ml PI, 0.1% Triton-X, and 10 μg/ml RNase A dissolved in PBS) for 1 hour at room temperature and DNA content was measured by flow cytometry analysis using a FACSort flow cytometer (Becton Dickinson, San Jose, Calif.); 15,000 events were analyzed for each sample. ModFit LT version 3.1 (Verity Software House Ind., ME) was used to analyze cell cycle distribution.

[10] = test system: PC-3 cells; assay: Absolute [Ca2+]i in PC-3 cells (Fura-2AM); type: cell-based; settings: for average [Ca2+]i: Fura-2AM, control 36.49 nM
Protocol: as §2, §3
Fluo-3 Ca^2+ indicator measurements are reported as the fractional change in fluorescence intensity relative to baseline (ΔF/F0), which was determined as follows. Within a temporal sequence of fluorescence images, a region of interest (ROI) was drawn around each cell to be analyzed. The fluorescence signal from each cell was calculated as the pixel-averaged intensity within each ROI. In these experiments, a slight downward drift in baseline was typically observed, which was principally attributable to photo-bleaching of the indicator. In such cases, the drift was always well fit by a low-amplitude single-exponential decay. The fitted baseline value (F0) at every time point was then used to calculate ΔF/F0. ΔF/F0 values are reported as mean±SE. For fura-2 measurements, [Ca^2+]i was derived using the ratio method of Grynkiewicz et al.^46

[11] = test system: PC-3 cells; assay: Microarray global gene expression in PC-3 cells; type: cell-based; settings: 20 μM, 24 hrs
Protocol: After 24 hour exposure to the agent, total RNA was isolated using the Qiagen RNeasy-Mini Kit following the manufacturer's protocol. Experiments were carried out in duplicate, with triplicate samples (dosed independently on 3 different days) from each experiment pooled for analysis on a single chip. Samples were hybridized to a GeneChip® Human Genome Focus Array (Affymetrix Inc., U.S.A.) and analyzed using an Affymetrix Genechip® Scanner 3000 according to the manufacturer's protocol. Gene ontologies were identified using the online Database for Annotation, Visualization, and Integrated Discovery (DAVID) provided by the National Institute of Allergy and Infectious Diseases and the National Institute of Health. […] Stringent criteria of a minimum EASE/P-Value threshold of 0.001 and a gene count threshold of 5 were used to identify altered gene ontologies.

[12] = test system: androgen-dependent LAPC4 human prostate tumor xenograft; settings: cited from earlier work
[13] = test system: PC-3 cells; assay: Real-time PCR (qRT-PCR) of stress response and cell cycle genes in PC-3 cells; type: cell-based; settings: 20 μM, 24 hr
Protocol: Cells were treated, lysed and RNA collected and quantified using the same method outlined above. Cells were dosed independently on three separate days (n=3). 1 μg of total RNA was converted to cDNA using ReactionReady™ First Strand cDNA Synthesis kit (SuperArray Bioscience Corp.; Frederick, Md.) following the manufacturer's protocol. 50 ng of template cDNA was then used in subsequent real-time PCR (qRT-PCR) reactions. Template was combined with target gene specific or β-actin control RT^2 PCR Primer Sets, RT^2 Real-Time™ SYBR Green/Rox Master Mix (SuperArray Bioscience Corp.), and ddH2O for a final reaction volume of 25 μL and run on a 7900HT Fast Real-Time PCR system (Applied Biosystems; Foster City, Calif.) following the manufacturer's protocol. Fold changes were calculated using the ΔΔCt method as recommended by the manufacture's protocol.

## C[C@]12CC[C@H](O)CC1=CC[C@@H]1[C@@H]2CC[C@]2(C)C(c3cccnc3)=CC[C@@H]12 [Abiraterone, abiraterone, reference compound]
[1]
  GI90: >100 µM
[2]
  GI90: >100 µM
[3]
  GI90: 25.12 µM
[4]
  peak plasma concentrations: below 1 μM

## C[C@]12CC[C@H](O)CC1=CC[C@@H]1[C@@H]2CC[C@]2(C)C(n3cnc4ccccc43)=CC[C@@H]12 [Compound 5, 3β-hydroxy-17-(1H-benzimidazole-1-yl)androsta-5,16-diene]
[5]
  detectability in plasma at 8 hours: neither was detectable
  peak plasma levels: 16.82 ng/mL
[6]
  bioavailability: ~10%
[1]
  GI90: 15.95 µM
[1]; Homo sapiens
  GI50: 7.55 µM
[7]; extracellular calcium present
  transient rise in [Ca2+]i, mean ΔF/Fo: 0.613
[7]; extracellular calcium removed
  transient rise in [Ca2+]i, mean ΔF/Fo: 0.967
[7]; pretreatment with SERCA inhibitor CPA
  Ca2+ transient after depletion of ER calcium stores: completely abolished
[8]; 20 μM, 6 and 24 hours, PC-3
  phosphorylation of eIF2α: induced the phosphorylation of eIF2α
[8]; PC-3, after 24 hrs
  cyclin D1 protein: down-regulation of cyclin D1 protein significantly
[2]; Homo sapiens
  GI50: 7.82 µM
[2]
  GI90: 18.62 µM
[9]
  exit from G1 phase of the cell cycle: prevent the exit from G1 phase
[10]; 1 μM Compound 5, 2 hours
  effect on [Ca2+]i: did not have a significant effect
[10]; 5 μM, 2 hours
  average [Ca2+]i: 79.13 nM
[10]; 10 μM, 2 hours
  average [Ca2+]i: 96.63 nM
[10]; 20 μM, 2 hours
  average [Ca2+]i: 79.89 nM
[3]
  GI90: 31.99 µM
  GI50: 3.15 µM
[11]
  down-regulated gene ontologies: associated with the cell cycle, especially S-phase (DNA replication)
  most enriched up-regulated gene ontologies: those relating to stress and metabolism, in particular amino acid metabolism
[11]; validated by qRT-PCR
  S100P calcium binding protein gene expression: most highly up-regulated gene
[12]; 50 mg/kg/twice daily, P=0.00065
  reduction in the mean final tumor volume compared with controls: 93.8%
[12]; Compound 6 at 0.15 mmol/kg twice daily
  effect on growth of LAPC4 tumor xenograft: very effective; also recorded: marked suppression
[13]
  CHOP gene expression: strongly up-regulated
  activating transcription factor 4 (ATF4) gene expression: up-regulated
  asparagines synthetase (ASNS) gene expression: up-regulated
  cyclin D1 mRNA levels: not affected
  cyclin E2 mRNA: significantly reduced

## C[C@]12CCC(=O)C=C1CC[C@@H]1[C@@H]2CC[C@]2(C)C(n3cnc4ccccc43)=CC[C@@H]12 [Compound 6, 17-(1H-benzimidazole-1-yl)androsta-4,16-diene-3-one]
[5]; plasma
  terminal half-lives: 39.93 min
[5]
  detectability in plasma at 8 hours: neither was detectable
  peak plasma levels: 5.15 ng/mL
[1]
  GI90: 15.53 µM
[2]
  GI90: 8.07 µM
[3]
  GI90: 13.46 µM

## C[C@]12CC[C@H](O)CC1=CC[C@@H]1[C@@H]2CC[C@]2(C)C(n3cncn3)=CC[C@@H]12 [Compound 16, 3β-Hydroxy-17-(1H-1,2,4-triazol-1-yl)androsta-5,16-diene]
[1]
  GI90: >100 µM
[1]; Homo sapiens
  GI50: 11 µM
[2]; Homo sapiens
  GI50: 2.91 µM
[2]
  GI90: >100 µM
[3]
  GI90: >100 µM
  GI50: 1.05 µM

## C[C@]12CC[C@H](O)CC1=CC[C@@H]1[C@@H]2CC[C@]2(C)C(n3ccnc3)=CC[C@@H]12 [Compound 17, 3β-Hydroxy-17-(1H-imidazol-1-yl)androsta-5,16-diene]
[1]
  GI90: 31.62 µM
[1]; Homo sapiens
  GI50: 5.31 µM
[2]; Homo sapiens
  GI50: 1.86 µM
[2]
  GI90: 30.41 µM
[3]
  GI90: 36.49 µM
  GI50: 2.47 µM

## C[C@]12CC[C@H](O)CC1=CC[C@@H]1[C@@H]2CC[C@]2(C)C(=O)CC[C@@H]12 [DHEA, dihydroandrosterone, reference compound]
[1]
  GI50: > 100 µM
[1]; up to 100 μM
  growth inhibitory activity against DU-145 cells: lacked any growth inhibitory activity
[8]; 20 μM DHA, PC-3
  effect on the protein markers measured: no significant effect
[2]
  fold less potent than Compound 5 in inhibiting PC-3 cells: ~10 fold
  GI50: 67.6 µM
  GI90: >100 µM
[10]; 20 μM DHA, 2 hours
  effect on [Ca2+]i: did not have a significant effect

From patent publication US9295679B2, “Prodrugs of C-17-heteroaryl steroidal CYP17 inhibitors/antiandrogens: synthesis, in vitro biological activities, pharmacokinetics and antitumor activity” (University of Maryland, Baltimore, priority 2008, dated 2016)
